Results taken from US20020026053A1, “Novel 3-(substituted) -2- indolinones compounds and use thereof as inhibitors of protein kinase activity” (priority 1997, published 2002).
Read-outs that look alike come from different tables or passages of the source.

Biological target: T1, EGFR (Homo sapiens, UniProt P00533)
T1 construct: endogenous in cells; host or cells: A431 cells (lysate, captured with SUMO1 anti-EGFR antibody)
Assay: Biochemical EGFR Assay
Set-up: concentration or dose not given beside the values
Outline: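 Readout is ABTS absorbance at 410 nm after anti-phosphotyrosine and HRP-antibody detection of EGFR autophosphorylation. The kinase was immunocaptured from A431 lysate, exposed 30 min to test compound diluted 1:10 in TBS, then phosphorylated for 5 min with ATP/MnCl2 before an EDTA stop.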

T1 sequence (P00533 25-1210): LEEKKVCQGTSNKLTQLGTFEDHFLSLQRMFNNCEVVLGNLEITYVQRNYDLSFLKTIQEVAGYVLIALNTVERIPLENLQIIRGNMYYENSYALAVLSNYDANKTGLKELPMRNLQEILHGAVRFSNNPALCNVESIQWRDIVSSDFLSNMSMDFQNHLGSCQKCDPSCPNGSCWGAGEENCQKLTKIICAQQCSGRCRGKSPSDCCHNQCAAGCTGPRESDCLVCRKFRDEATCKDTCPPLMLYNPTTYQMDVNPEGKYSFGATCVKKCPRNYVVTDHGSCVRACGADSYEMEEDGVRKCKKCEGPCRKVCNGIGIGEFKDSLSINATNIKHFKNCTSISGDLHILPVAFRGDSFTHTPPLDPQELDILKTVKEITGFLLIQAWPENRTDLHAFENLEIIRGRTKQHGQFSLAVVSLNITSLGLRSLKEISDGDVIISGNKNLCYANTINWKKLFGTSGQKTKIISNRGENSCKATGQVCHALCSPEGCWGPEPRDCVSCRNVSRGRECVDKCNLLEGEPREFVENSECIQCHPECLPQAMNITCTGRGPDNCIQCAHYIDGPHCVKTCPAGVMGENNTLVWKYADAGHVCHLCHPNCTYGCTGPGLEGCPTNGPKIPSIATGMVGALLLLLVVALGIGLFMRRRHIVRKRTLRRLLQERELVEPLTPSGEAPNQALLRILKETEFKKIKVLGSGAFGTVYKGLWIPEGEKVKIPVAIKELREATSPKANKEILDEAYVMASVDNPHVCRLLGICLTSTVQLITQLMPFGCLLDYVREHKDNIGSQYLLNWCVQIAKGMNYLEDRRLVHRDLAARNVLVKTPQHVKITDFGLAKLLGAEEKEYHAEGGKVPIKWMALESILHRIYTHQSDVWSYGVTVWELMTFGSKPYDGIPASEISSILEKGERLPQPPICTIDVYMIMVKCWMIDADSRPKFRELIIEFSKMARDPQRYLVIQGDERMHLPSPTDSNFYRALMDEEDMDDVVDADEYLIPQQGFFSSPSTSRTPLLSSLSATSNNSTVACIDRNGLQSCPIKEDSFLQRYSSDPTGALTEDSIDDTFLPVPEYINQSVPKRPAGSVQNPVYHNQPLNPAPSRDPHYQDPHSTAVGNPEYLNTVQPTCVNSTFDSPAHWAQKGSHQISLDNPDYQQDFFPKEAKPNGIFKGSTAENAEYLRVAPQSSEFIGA

| SMILES | Biochem EGFR % Inhibition (P.167) [%] | Biochem EGFR % Inhibition (P.167) (protocol P.167) [%] |
| --- | --- | --- |
| CCOc1ccccc1C=C1C(=O)Nc2c(Br)cc(Br)c(C)c21 [10717/H02] | 3.5 |  |
| Cc1c(Br)cc(Br)c2c1C(=Cc1cccs1)C(=O)N2 [10717/H03] | 25.7 |  |
| Cc1c(Br)cc(Br)c2c1C(=Cc1cccn1C)C(=O)N2 [10717/H04] | 6.8 |  |
| COc1ccc(C=C2C(=O)Nc3c(Br)cc(Br)c(C)c32)cc1OC [10720/H04] | −49.6 |  |
| Cc1c(Br)cc(Br)c2c1C(=Cc1ccccc1O)C(=O)N2 [10720/H05] | −29.0 |  |
| Cc1c(Br)cc(Br)c2c1C(=Cc1ccccc1)C(=O)N2 [10720/H06] | −52.4 |  |
| CSc1ccc(C=C2C(=O)Nc3c(Br)cc(Br)c(C)c32)s1 [10720/H07] | −49.8 |  |
| Cc1cc(O)cc(O)c1C=C1C(=O)Nc2c(Br)cc(Br)c(C)c21 [10720/H08] | −55.8 |  |
| CCOc1cc(C=C2C(=O)Nc3c(Br)cc(Br)c(C)c32)ccc1O [10720/H09] | −66.8 |  |
| COc1ccc(O)c(C=C2C(=O)Nc3c(Br)cc(Br)c(C)c32)c1 [10720/H10] | −62.8 |  |
| Cc1c(Br)cc(Br)c2c1C(=Cc1ncc[nH]1)C(=O)N2 [10720/H11] | −19.3 |  |
| Cc1c(Br)cc(Br)c2c1C(=Cc1nc3ccccc3n1C)C(=O)N2 [10721/H02] | 20.1 |  |
| Cc1c(Br)cc(Br)c2c1C(=Cc1nn(C)cc1Cl)C(=O)N2 [10721/H03] | 29.2 |  |
| Cc1cc(C=C2C(=O)Nc3c(Br)cc(Br)c(C)c32)sc1C [10721/H04] | −8.5 |  |
| Cc1c(Br)cc(Br)c2c1C(=Cc1cc3c([nH]1)CCCC3)C(=O)N2 [10721/H05] | −12.4 |  |
| Cc1c(Br)cc(Br)c2c1C(=Cc1cc([N+](=O)[O-])cc(CCl)c1O)C(=O)N2 [10721/H06] | 43.3 |  |
| Cc1c(Br)cc(Br)c2c1C(=Cc1ccc(Cl)s1)C(=O)N2 [10721/H07] | −20.5 |  |
| Cc1cc(C)c(C=C2C(=O)Nc3c(Br)cc(Br)c(C)c32)[nH]1 [10721/H08] | −6.8 |  |
| Cc1c(Br)cc(Br)c2c1C(=Cc1ccc(O)c(C(C)(C)C)c1)C(=O)N2 [10721/H09] | −10.4 |  |
| Cc1c(Br)cc(Br)c2c1C(=Cc1cc(Br)c(O)c(C(C)(C)C)c1)C(=O)N2 [10721/H10] | −3.9 |  |
| Cc1c(Br)cc(Br)c2c1C(=Cc1cc(C(C)(C)C)c(O)c(C(C)(C)C)c1)C(=O)N2 [10721/H11] | −21.3 |  |
| Cc1c(Br)cc(Br)c2c1C(=Cc1cc([N+](=O)[O-])c(O)c(C(C)(C)C)c1)C(=O)N2 [10722/H02] | 24.8 |  |
| Cc1c(Br)cc(Br)c2c1C(=Cc1c(O)cc(O)cc1O)C(=O)N2 [10722/H03] | 27.8 |  |
| Cc1c(Br)cc(Br)c2c1C(=Cc1ccc([N+](=O)[O-])s1)C(=O)N2 [10722/H04] | 8.6 |  |
| Cc1c(Br)cc(Br)c2c1C(=Cc1ccc(C(=O)O)cc1)C(=O)N2 [10722/H05] | 1.1 |  |
| Cc1c(Br)cc(Br)c2c1C(=Cc1ccc(F)cc1F)C(=O)N2 [10722/H06] | −2.0 |  |

| SMILES | Biochem EGFR % Inhibition (P.167) [%] | Biochem EGFR % Inhibition (P.167) (protocol P.167) [%] |
| --- | --- | --- |
| Cc1cc(C=C2C(=O)Nc3c(Br)cc(Br)c(C)c32)cc(C)c1O [10722/H07] | −24.8 |  |
| Cc1c(Br)cc(Br)c2c1C(=Cc1cc(Cl)c(O)c(C(C)(C)C)c1)C(=O)N2 [10722/H08] | −5.7 |  |
| Cc1c(Br)cc(Br)c2c1C(=Cc1csc([N+](=O)[O-])c1)C(=O)N2 [10722/H09] | −7.4 |  |
| CCCCN(CCCC)c1ccc(C=C2C(=O)Nc3c(Br)cc(Br)c(C)c32)cc1 [10722/H10] | −11.2 |  |
| Cc1c(Br)cc(Br)c2c1C(=Cc1ccc(C(F)(F)F)cc1)C(=O)N2 [10722/H11] | −16.3 |  |
| Cc1c(Br)cc(Br)c2c1C(=Cc1ccc(O)c(O)c1O)C(=O)N2 [10723/H02] | 72.8 |  |
| COc1cccc(C=C2C(=O)Nc3c(Br)cc(Br)c(C)c32)c1O [10723/H03] | 6.3 |  |
| Cc1c(Br)cc(Br)c2c1C(=Cc1cc(O)c(O)c(Br)c1)C(=O)N2 [10723/H04] | 7.1 |  |
| CC(=O)Oc1ccc(C=C2C(=O)Nc3c(Br)cc(Br)c(C)c32)cc1OC(C)=O [10723/H05] | −17.3 |  |
| Cc1cc(C=C2C(=O)Nc3c(Br)cc(Br)c(C)c32)ccc1O [10723/H06] | −11.8 |  |
| Cc1c(Br)cc(Br)c2c1C(=Cc1ccccc1Br)C(=O)N2 [10723/H07] | −11.3 |  |
| Cc1c(Br)cc(Br)c2c1C(=Cc1ccc(O)cc1O)C(=O)N2 [10723/H08] | 69.9 |  |
| COc1ccc(C=C2C(=O)Nc3c(Br)cc(Br)c(C)c32)c(O)c1 [10723/H09] | −2.6 |  |
| Cc1c(Br)cc(Br)c2c1C(=Cc1cccc(Br)c1)C(=O)N2 [10723/H10] | −38.1 |  |
| Cc1c(Br)cc(Br)c2c1C(=Cc1cc(C(C)(C)C)cc(C(C)(C)C)c1O)C(=O)N2 [10723/H11] | −20.7 |  |
| Cc1c(Br)cc(Br)c2c1C(=Cc1ccc(N(C)C)c3ccccc13)C(=O)N2 [10724/H02] | 17.6 |  |
| Cc1c(Br)cc(Br)c2c1C(=Cc1ccc(O)c([N+](=O)[O-])c1)C(=O)N2 [10724/H03] | 0.3 |  |
| Cc1c(Br)cc(Br)c2c1C(=Cc1ccc([N+](=O)[O-])c(O)c1)C(=O)N2 [10724/H04] | 14.0 |  |
| Cc1c(Br)cc(Br)c2c1C(=Cc1cc3c4c(c1O)CCCN4CCC3)C(=O)N2 [10724/H05] | −1.3 |  |
| Cc1c(Br)cc(Br)c2c1C(=Cc1cc(C(C)C)c(O)c(C(C)C)c1)C(=O)N2 [10724/H06] | −8.2 |  |
| Cc1c(Br)cc(Br)c2c1C(=Cc1cc3ccccc3o1)C(=O)N2 [10724/H07] | −19.3 |  |
| COc1cc(O)c(C=C2C(=O)Nc3c(Br)cc(Br)c(C)c32)c(OC)c1 [10724/H08] | −19.7 |  |
| Cc1c(Br)cc(Br)c2c1C(=Cc1cccn1-c1ccc(Cl)cc1)C(=O)N2 [10724/H09] | −33.5 |  |
| CCc1ccc(C=C2C(=O)Nc3c(Br)cc(Br)c(C)c32)o1 [10724/H10] | −25.5 |  |
| Cc1c(Br)cc(Br)c2c1C(=Cc1sc3scc(C)c3c1C)C(=O)N2 [10724/H11] | −12.8 |  |
| Cc1c(Br)cc(Br)c2c1C(=Cc1sccc1Br)C(=O)N2 [10725/H02] | −23.5 |  |

| SMILES | Biochem EGFR % Inhibition (P.167) [%] | Biochem EGFR % Inhibition (P.167) (protocol P.167) [%] |
| --- | --- | --- |
| COc1ccc(Br)c(C=C2C(=O)Nc3c(Br)cc(Br)c(C)c32)c1O [10725/H03] | −16.5 |  |
| Cc1ccc(C=C2C(=O)Nc3c(Br)cc(Br)c(C)c32)o1 [10725/H04] | 17.2 |  |
| Cc1cc(C=C2C(=O)Nc3c(Br)cc(Br)c(C)c32)[nH]n1 [10725/H05] | −30.2 |  |
| COc1cc(C)cc(O)c1C=C1C(=O)Nc2c(Br)cc(Br)c(C)c21 [10725/H06] | 0.3 |  |
| Cc1c(Br)cc(Br)c2c1C(=Cc1ccc(N3CCN(C=O)CC3)cc1)C(=O)N2 [10725/H07] | −13.3 |  |
| Cc1c(Br)cc(Br)c2c1C(=Cc1ccc(N3CCOCC3)cc1)C(=O)N2 [10725/H08] | −3.7 |  |
| COC(=O)Cc1c(Cl)[nH]c(C=C2C(=O)Nc3c(Br)cc(Br)c(C)c32)c1C(=O)OC [10725/H09] | −28.4 |  |
| Cc1c(Br)cc(Br)c2c1C(=Cc1c(Br)cnn1-c1ccc(Cl)cc1)C(=O)N2 [10725/H10] | 9.1 |  |
| Cc1c(Br)cc(Br)c2c1C(=Cc1c[nH]cn1)C(=O)N2 [10725/H11] | 0.5 |  |
| Cc1c(Br)cc(Br)c2c1C(=Cc1ccccc1[N+](=O)[O-])C(=O)N2 [10726/H02] | −11.2 |  |
| CCOC(=O)c1[nH]c(C=C2C(=O)Nc3c(Br)cc(Br)c(C)c32)c(C(=O)OC)c1C [10726/H03] | 14.0 |  |
| Cc1cc(C=C2C(=O)Nc3c(Br)cc(Br)c(C)c32)cc(C(C)(C)C)c1O [10726/H04] | 75.5 |  |
| COc1cccc(C=C2C(=O)Nc3ccc(S(=O)(=O)N4CCOCC4)cc32)c1 [10736/F10] | −0.7 |  |
| O=C1Nc2ccc(S(=O)(=O)N3CCOCC3)cc2C1=Cc1ccccc1Cl [10736/F11] | −23.4 |  |
| O=C1Nc2ccc(CCCl)cc2C1=Cc1ccc(Cl)cc1 [10736/G02] | −4.5 |  |
| O=C1Nc2ccc(CCCl)cc2C1=Cc1ccccc1C(F)(F)F [10736/G03] | 23.0 |  |
| Cc1cccc(C=C2C(=O)Nc3ccc(CCCl)cc32)c1 [10736/G04] | −35.0 |  |
| O=C1Nc2ccc(CCCl)cc2C1=Cc1cccc(F)c1 [10736/G07] |  | −74.8 |
| O=C1Nc2ccc(CCCl)cc2C1=Cc1ccccc1F [10736/G08] |  | −9.2 |
| CCc1ccc(C=C2C(=O)Nc3ccc(CCCl)cc32)cc1 [10736/G09] |  | 12.4 |
| COc1cccc(C=C2C(=O)Nc3ccc(CCCl)cc32)c1 [10736/G10] |  | −4.5 |
| O=C1Nc2ccc(CCCl)cc2C1=Cc1ccccc1Cl [10736/G11] |  | −6.4 |
| Cc1c(Br)cc(Br)c2c1C(=Cc1ccc(Cl)cc1)C(=O)N2 [10736/H02] |  | −32.0 |
| Cc1c(Br)cc(Br)c2c1C(=Cc1ccccc1C(F)(F)F)C(=O)N2 [10736/H03] |  | −1.4 |
| Cc1cccc(C=C2C(=O)Nc3c(Br)cc(Br)c(C)c32)c1 [10736/H04] |  | −4.3 |
| Cc1ccc(C=C2C(=O)Nc3c(Br)cc(Br)c(C)c32)cc1 [10736/H05] |  | −28.9 |
